Source: patent US12612525B2, “Amine compound, reactive coalescing agent, coating composition, coating layer and related methods” (Agency for Science, Technology and Research, priority 2020, dated 2026)
Like-named read-outs stand apart in the source and are kept apart here.

Assays:
[1] = Water solubility of ACAs (Table 1); format: physicochemical; conditions: in water
[2] = Boiling point determination of ACAs; format: physicochemical
Experimental: Amine based reactive coalescing agents were synthesized via an atom efficient aza-Michael addition reaction of secondary amine to different acrylate/acrylamide monomers such as 2-hydroxyethyl acrylate, 2-hydroxypropyl acrylate, 2-ethylhexyl acrylate, ^nbutyl acrylate, and N-hydroxyethyl acrylamide etc (Table 1 and Scheme 2). The reactions were carried out neat or in water (in some cases, in the presence of 10% ceric ammonium nitrate (CAN) catalyst) at room temperature (RT)-80° C. to yield 80% to 95% conversion. Finally, the ACAs were purified by column chromatography and characterized by ^1H-NMR and ^13C-NMR spectroscopy, and elemental microanalysis (as will be shown in Examples 3.1 to 3.5). Other characterizations include determination of boiling point, volatility (% wt loss when heated at 110±5° C. for 1 hour as per USA EPA 24 method), and plasticizing effect, i.e. reduction of minimum film formation temperature (MFFT) of commercial latices.
Characterization studies were performed on the ACA examples to determine their boiling points and volatility (% wt loss when heated at 110±5° C. for 1 hour as per USA EPA 24 method).

[3] = Accelerated release study: coalescing agent blended with latex IRS-129, film heated at 110° C., 1H NMR; conditions: 2 wt % in IRS-129 latex, dried 2 days at room temperature, powder heated at 110° C. in convection oven
Experimental: At first, ACA4 (2 wt % with respect to latex) was first blended with IRS-129 latex (containing —COOH groups) using dispermat (LC75-E) and the mixture was allowed to dry at room temperature for 2 days. Then, the polymer film was grounded to make powder and then heated at 110° C. in a convection oven, i.e. accelerated evaporation (as illustrated in FIG. 6). Accelerated evaporation was used in this study instead as natural release is time consuming and gas analysis is difficult.
Samples were collected time to time, dissolved in NMR solvent and analyzed by ^1H NMR spectroscopy (with 25 mg of sample, 0.8 mL of CDCl3, and 25 μL of DMF/CDCl3 as internal standard). High boiling commercial coalescing agent, 1-Phenoxy-2-propanol (PPH) (b.p. 243° C.) was used as control.

[4] = Stabilization of polymer on heating; conditions: IRS-129 heated at 100° C. for 4 days
[5] = commercial coalescing agent used as control; cited from earlier work

Q: For O=C(CCN(Cc1ccccc1)Cc1ccccc1)OCCO [ACA4], which “Water Solubility” value [1] is on record?
A: Its value is under 0.06%.

Q: And the b.p. [2]?
A: Its b.p. is 292-297 °C.

Q: And the “Presence of coalescing agent in polymer film after heating (1H NMR)” value [3]?
A: Its value is “remain present even after 4 days of heating”.

Q: And the “Stabilisation of latex polymer against oxidation/coloration” value [4]?
A: The value was “helps to stabilise or reduce oxidation/coloration of the polymer”.

Q: Which b.p. [2] does the source give for C=C(C)C(=O)OCCOC(=O)CCN(Cc1ccccc1)Cc1ccccc1 [ACA15] here?
A: The b.p. was 251-254 °C.

Q: For CCOCCOCCOC(=O)CCN(Cc1ccccc1)Cc1ccccc1 [ACA16], which b.p. [2] is on record?
A: Its b.p. is 348-355 °C.

Q: For CC(O)COc1ccccc1 (centres unmarked) [PPH, 1-Phenoxy-2-propanol, reference compound], which “Presence of coalescing agent in polymer film after heating (1H NMR)” value [3] is on record?
A: The value was “completely evaporated out from the polymer after 2 days of heating”.

Q: What about the b.p. [5] of the same compound?
A: Its b.p. is 243 °C.
